Our source for the IC50 values is patent US10053434B2, “Histone deacetylase inhibitors and compositions and methods of use thereof” (CHDI Foundation, Inc., priority 2015, dated 2018).

Where a name gives a salt, the structure may show the parent alone.

The target in test [1] is human catalytic domain HDAC4 protein (amino acids 648-1032) (Homo sapiens (Human), UniProt P56524). Nature of the test: HDAC4 catalytic domain enzymatic activity, fluorogenic substrate Boc-Lys(TFA)-AMC. The settings on record: read-out: HDAC4 Biochemical IC50. An excerpt:
Example 25: Analysis of Inhibition of HDAC4 with Class IIa Histone Deacetylase (HDAC) Inhibitors
The potency of Class IIa Histone Deacetylase (HDAC) inhibitors was quantified by measuring the Histone Deacetylase 4 (HDAC4) catalytic domain enzymatic activity using the fluorogenic substrate, Boc-Lys(TFA)-AMC. The substrate was deacetylated to Boc-Lys-AMC by HDAC4. […] The fluorescence of the sample was directly related to the histone deacetylase activity in the sample.
(§1) Serially Dilute HDAC Inhibitor Compounds.
Serial dilutions of the HDAC inhibitors and control reference compound (1-(5-(3-((4-(1,3,4-oxadiazol-2-yl)phenoxy)methyl)-1,2,4-oxadiazol-5-yl)thiophen-2-yl)-2,2,2-trifluoroethanone) were made by first resuspending the lyophilized compound to a final concentration of 10 mM in 100% dimethyl sulfoxide (DMSO). Stocks of 60 μL aliquots of the 10 mM compound in DMSO were prepared and stored at −20° C. From one stock aliquot of each tested compound and the reference compound, a 16-point serial dilution was prepared according to Table 1 using a 125 μL 16-channel Matrix multi-channel pipette (Matrix Technologies Ltd).
2 μL (200×) of each diluted solution and each control (full activity: 100% DMSO alone or full inhibition 1 mM) was stamped into V-bottomed polypropylene 384-well compound plates using either the Bravo (384-well head from Agilent) or 12.5 μL 16-channel Matrix multi-channel pipette (Matrix Technologies Ltd). Each well with the 200× compound solution was diluted 1:20 by the addition of 38 μL assay buffer+DMSO (10.5% DMSO, 45 mM Tris-HCl, 123 mM NaCl, 2.4 mM KCl, and 0.9 mM MgCl2 at pH 8.0 and equilibrated to r.t.).
Prepare HDAC4 Catalytic Domain Enzyme (0.2 μg/mL).
The HDAC4 catalytic domain enzyme was human catalytic domain HDAC4 protein (amino acids 648-1032) with a C-terminal 6× histidine tag, produced by BioFocus. A working solution of enzyme was prepared from a […] stock aliquot of HDAC4 catalytic domain (thawed on ice) diluted to 0.2 μg/mL with assay buffer (50 mM Tris-HCl, 137 mM NaCl, 2.7 mM KCl, and 1 mM MgCl2 at pH 8 and equilibrated to r.t.) just prior to the addition of the enzyme to the assay.
Prepare 5× (50 μM) Boc-Lys(TFA)-AMC Substrate.
5× (50 μM) substrate was prepared just prior to the addition to the assay. A 1 mM substrate stock was made by diluting a 100 mM Boc-Lys(TFA)-AMC in DMSO solution 1:100 by adding it drop-wise to assay buffer (equilibrated to r.t.) while vortexing at slow speed to prevent precipitation. The 5× substrate was prepared by diluting the 1 mM substrate solution 1:20 by adding it drop-wise to assay buffer (equilibrated to r.t.) while vortexing at slow speed to prevent precipitation.
Prepare 3× (30 μM) Developer/Stop Solution.
3× (30 μM) Developer/Stop Solution was prepared just prior to addition to the plate by diluting a stock solution of 10 mM reference compound 1:333 in 25 mg/mL trypsin (PAA Laboratories Ltd.) equilibrated to r.t.
5 μL of each solution of 1:20 diluted compound from above was transferred to a clear bottomed, black, 384-well assay plate using the Bravo or the Janus (384-well MDT head from Perkin Elmer). Using a 16-channel Matrix multi-channel pipette, 35 μL of the working solution of HDAC4 catalytic domain enzyme (0.2 μg/mL in assay buffer) was transferred to the assay plate. The assay was then started by adding 10 μL of 5× (50 μM) substrate to the assay plates using either the Bravo, Janus or 16-channel Matrix multi-channel pipette. The assay plate was then shaken for two minutes on an orbital shaker at 900 rpm (rotations per minute). Next the plate was incubated for 15 minutes at 37° C. The reaction was stopped by adding 25 μL of 3× (30 μM) developer/stop solution to the assay plates using either the Bravo, Janus or a 16-channel Matrix multi-channel pipette. Assay plates were then shaken for 5 minutes on an orbital shaker at 1200 rpm. Next, the assay plates were incubated at 37° C. for 1 hour in a tissue culture incubator. […]

The test system of test [2] is Cellular Class IIa HDAC activity. Nature of the test: Inhibition of cellular Class IIa HDAC activity; Cell (Lys-TFA) substrate, Jurkat E6-1 cells. The following applies: Boc-Lys(TFA)-AMC substrate. Type of test: cell-based.
Text: Example 29: Analysis of Inhibition of Cellular Class IIa HDAC Activity with Class IIa Histone Deacetylase (HDAC) Inhibitors; Cell (Lys-TFA) Substrate
(§2) The potency of Class IIa Histone Deacetylase (HDAC) inhibitors was quantified by measuring the cellular histone deacetylase enzymatic activity using the fluorogenic substrate, Boc-Lys(TFA)-AMC. After penetration in Jurkat E6-1 cells, the substrate was deacetylated to Boc-Lys-AMC. After cell lysis and cleavage by trypsin, the fluorophore AMC was released from the deacetylated substrate only. The fluorescence of the sample was directly related to the histone deacetylase activity in the sample.
Jurkat E6.1 Cell Culture and Plating.
(§3) Jurkat E6.1 cells were cultured according to standard cell culture protocols in Jurkat E6.1 Growth Media (RPMI without phenol red, 10% FBS, 10 mM HEPES, and 1 mM Sodium Pyruvate). Jurkat E6.1 cells were counted using a Coulter Counter and resuspended in Jurkat E6.1 growth media at a concentration of 75,000 cells/35 μL. 35 μL or 75,000 cells was seeded into Greiner microtitre assay plates. The plates were then incubated at 37° C. and 5% CO2 while other assay components were being prepared.
as §1
(§4) Serial dilutions of the HDAC inhibitors and control reference compound (1-(5-(3-((4-(1,3,4-oxadiazol-2-yl)phenoxy)methyl)-1,2,4-oxadiazol-5-yl)thiophen-2-yl)-2,2,2-trifluoroethanone) were made by first resuspending the lyophilized compound to a final concentration of 10 mM in 100% DMSO. Stocks of 70 μL aliquots of the 10 mM compound in DMSO were prepared and stored at −20° C. From one stock aliquot of each tested compound and the reference compound, a 16-point serial dilution was prepared according to Table 1 using a 125 μL 16-channel Matrix multi-channel pipette.
(§5) 2 μL (200×) of each diluted solution and each control (full activity: 100% DMSO alone or full inhibition 1 mM) was stamped into V-bottom polypropylene 384-well compound plates using either the Bravo, Janus, or 12.5 μL 16-channel Matrix multi-channel pipette. Each well with the 200× compound solution was diluted 1:20 by the addition of 38 μL Jurkat assay buffer+DMSO (9.5% DMSO, RPMI without phenol red, 0.09% FBS, 9 mM Hepes, and 0.9 mM Sodium Pyruvate equilibrated to r.t.)
Prepare 5× (500 μM) Boc-Lys(TFA)-AMC Substrate.
(§6) 5× (500 μM) substrate was prepared just prior to the addition to the assay. The 5× substrate was prepared by diluting a 100 mM Boc-Lys(TFA)-AMC in DMSO solution 1:200 by adding it drop-wise to Jurkat assay medium (RPMI without phenol red, 0.1% FBS, 10 mM Hepes, and 1 mM Sodium Pyruvate equilibrated to 37° C.) while vortexing at slow speed to prevent precipitation.
(§7) 10 mL of 3× lysis buffer was prepared with 8.8 mL of 3× stock lysis buffer (50 mM Tris-HCl, pH 8.0, 137 mM NaCl, 2.7 mM KCl, 1 mM MgCl2, 1% Nonidet P40 Substitute equilibrated to r.t.) and 1.2 mL of 3 mg/mL Trypsin equilibrated to r.t.
(§8) 5 μL of each solution of 1:20 diluted compound from above was transferred to the Greiner microtitre assay plates with 75,000 cells/well using the Bravo. Cells were then incubated for 2 hours at 37° C. and 5% CO2. The assay was then started by adding 10 μL of 5× (500 μM) substrate to the assay plate using either the Bravo or 16-channel Matrix multi-channel pipette. The cells were then incubated for 3 hours at 37° C. and 5% CO2. Next, 25 μL of 3× lysis buffer was added to each well using either the 125 μL 16 channel pipette or the Bravo. The assay plate was then incubated overnight (15-16 hours) at 37° C. and 5% CO2. The following day, the plates were shaken on an orbital shaker for 1 minute at 900 rpm. Finally the top read fluorescence (Excitation: 355 nm, Emission: 460 nm) was measured using PerkinElmer EnVision.

The test system of test [3] is Cellular Class I HDAC activity. Nature of the test: Inhibition of cellular Class I HDAC activity; Cell (Lys-Ac) substrate, Jurkat E6-1 cells. Type of test: cell-based. The settings on record: Boc-Lys(Ac)-AMC substrate.
Text: as §2, §3, §4, §5, §6, §7, §8
Example 30: Analysis of Inhibition of Cellular Class I HDAC Activity with Class IIa Histone Deacetylase (HDAC) Inhibitors; Cell (Lys-Ac) Substrate
The Class I HDAC activity of Class IIa Histone Deacetylase (HDAC) inhibitors was quantified by measuring the cellular histone deacetylase enzymatic activity using the fluorogenic substrate, Boc-Lys(Ac)-AMC. This was performed according to the procedure in Example 29, using Boc-Lys(Ac)-AMC substrate in place of Boc-Lys(TFA)-AMC.

Chain of human catalytic domain HDAC4 protein (amino acids 648-1032) (P56524 648-1032): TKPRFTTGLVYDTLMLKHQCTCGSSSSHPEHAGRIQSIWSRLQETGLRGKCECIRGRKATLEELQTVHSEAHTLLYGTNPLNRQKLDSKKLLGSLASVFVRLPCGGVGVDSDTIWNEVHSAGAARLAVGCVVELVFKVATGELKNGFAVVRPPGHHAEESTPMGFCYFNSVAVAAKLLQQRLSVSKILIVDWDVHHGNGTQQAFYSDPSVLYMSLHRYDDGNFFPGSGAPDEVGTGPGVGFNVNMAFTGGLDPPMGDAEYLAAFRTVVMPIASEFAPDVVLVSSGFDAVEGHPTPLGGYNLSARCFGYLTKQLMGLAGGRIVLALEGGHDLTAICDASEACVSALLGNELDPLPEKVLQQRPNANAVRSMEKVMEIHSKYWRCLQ

Consider `C[C@H](CN1CCCC2(CC2)C1)NC(=O)c1ccc(-c2noc(C(F)(F)F)n2)cc1` [Example 11, (R)—N-(1-(5-Azaspiro[2.5]octan-5-yl)propan-2-yl)-4-(5-(trifluoromethyl)-1,2,4-oxadiazol-3-yl)benzamide], for which the IC50 in test [1] stood at 3 nM; in test [2] it was 9 nM; in test [3], 970 nM.
Consider `C[C@H](CN1CCC2(CC1)CC2)NC(=O)c1ccc(-c2noc(C(F)(F)F)n2)cc1` [Example 12, (R)—N-(1-(6-Azaspiro[2.5]octan-6-yl)propan-2-yl)-4-(5-(trifluoromethyl)-1,2,4-oxadiazol-3-yl)benzamide], for which the IC50 in test [1] is 30 nM; in test [2] it was 58 nM; in test [3] it was 4000 nM.
For the compound `C[C@H](CN1CCCCCC1)NC(=O)c1ccc(-c2noc(C(F)(F)F)n2)cc1` [Example 13, (R)—N-(1-(Azepan-1-yl)propan-2-yl)-4-(5-(trifluoromethyl)-1,2,4-oxadiazol-3-yl)benzamide], the half-maximal inhibitory concentration (IC50) in test [1] came to 11 nM; in test [2], 30 nM; in test [3] it was 1700 nM.
Consider `C[C@H](CN1CCC12CCC2)NC(=O)c1ccc(-c2noc(C(F)(F)F)n2)cc1` [Example 14, (R)—N-(1-(1-Azaspiro[3.3]heptan-1-yl)propan-2-yl)-4-(5-(trifluoromethyl)-1,2,4-oxadiazol-3-yl)benzamide], for which the figures for the IC50 in test [1], in test [2] and in test [3] were 16 nM, 180 nM and 7700 nM, respectively.
In the case of `C[C@H](CN1CCC2(CC2)C1)NC(=O)c1ccc(-c2noc(C(F)(F)F)n2)cc1` [Example 15, (R)—N-(1-(5-Azaspiro[2.4]heptan-5-yl)propan-2-yl)-4-(5-(trifluoromethyl)-1,2,4-oxadiazol-3-yl)benzamide], the IC50 was found to be 8 nM in test [1], 69 nM in test [2] and 5100 nM in test [3].
As to `C[C@H](CN1CC2CCC(C2)C1)NC(=O)c1ccc(-c2noc(C(F)(F)F)n2)cc1` [Example 16, N-((2R)-1-(3-Azabicyclo[3.2.1]octan-3-yl)propan-2-yl)-4-(5-(trifluoromethyl)-1,2,4-oxadiazol-3-yl)benzamide], the IC50 came to 7 nM in test [1], 12 nM in test [2] and 890 nM in test [3].
Take `C[C@H](CN1CC2CCCC2C1)NC(=O)c1ccc(-c2noc(C(F)(F)F)n2)cc1` (stereo partly drawn) [Example 17, 2-((R)-2-(4-(5-(Trifluoromethyl)-1,2,4-oxadiazol-3-yl)benzamido)propyl)octahydrocyclopenta[c]pyrrol-2-ium formate]: the 50% inhibitory concentration (IC50) in test [1] is 12 nM; in test [2], 28 nM; in test [3] it was 690 nM.
The matching figures for `C[C@H](CN1CCc2ccncc2C1)NC(=O)c1ccc(-c2noc(C(F)(F)F)n2)cc1` [Example 18, (R)—N-(1-(3,4-dihydro-2,7-naphthyridin-2(1H)-yl)propan-2-yl)-4-(5-(trifluoromethyl)-1,2,4-oxadiazol-3-yl)benzamide]: 6 nM, 190 nM and 12700 nM.
In the case of `C[C@H](CN1CC2CCC2C1)NC(=O)c1ccc(-c2noc(C(F)(F)F)n2)cc1` (stereo partly drawn) [Example 19, N-((2R)-1-(3-Azabicyclo[3.2.0]heptan-3-yl)propan-2-yl)-4-(5-(trifluoromethyl)-1,2,4-oxadiazol-3-yl)benzamide], the concentration for half-maximal inhibition (IC50) in test [1] was 4 nM; in test [2], 9 nM; in test [3] it was 1100 nM.
In the case of `C[C@H](CN1CC2C(C1)C2(C)C)NC(=O)c1ccc(-c2noc(C(F)(F)F)n2)cc1` (stereo partly drawn) [Example 22, N-((2R)-1-(6,6-Dimethyl-3-azabicyclo[3.1.0]hexan-3-yl)propan-2-yl)-4-(5-(trifluoromethyl)-1,2,4-oxadiazol-3-yl)benzamide], the results for the half-inhibitory concentration (IC50) in test [1], in test [2] and in test [3] were 20 nM, 86 nM and 6100 nM, respectively.
As for `C[C@H](CN1CCC[C@@H]1C)NC(=O)c1ccc(-c2noc(C(F)(F)F)n2)c(F)c1` [Example 23, (2S)-1-((R)-2-(3-Fluoro-4-(5-(trifluoromethyl)-1,2,4-oxadiazol-3-yl)benzamido)propyl)-2-methylpyrrolidin-1-ium formate], the IC50 stood at 9 nM in test [1], 72 nM in test [2] and 21400 nM in test [3].

As a reminder, the IC50 is the concentration that gives 50% inhibition.
